Patent EP0037495A1, “Pyrimidyl quinazolines, process for their preparation and pharmaceutical compositions containing them” (CASSELLA Aktiengesellschaft, priority 1980, dated 1981)

Test system: normotonen narkotisierten Ratte
Assay: Blood pressure measurement in the normotensive anaesthetised rat
Type: in vivo
Details: mean; for WD min x̄ (Wirkungsdauer): time from onset of change until return to baseline
Protocol: 1. Blutdruckmessung an der normotonen narkotisierten Ratte
Männliche IVANOVAS-Ratten (300 - 340 g) des Stammes SIV 50 wurden durch Applikation von 66 mg/kg a-Chloralose (1,1 % Lösung, 0,6 ml/100 g) und 20 mg:kg Aprobarbital in die Schwanzvene narkotisiert. Die Trachea wurde kannuliert um die Spontanatmung zu erleichtern. Die Messung des Blutdruckes erfolgte blutig über einen in die Rechte A. carotis eingebundenen PE-Schlauch auf konventionelle Weise. Mittels eines Dreiwegehahnes konnte dieser PE-Schlauch zur i.a.-Applikation der Prüfsubstanzen benutzt werden, wobei jeweils ein Volumen von 0,1 ml injiziert wurde. Durch Nachspülen mit 0,9 % NaCl gelangten die Substanzen über die Vertebralarterie auch in Richtung Zentralnervensystem bevor die Verteilung im allgemeinen Kreislauf erfolgte.
Zahlenmäßig ausgewertet wurde die maximale systolische und diastolische Blutdrucksenkung sowie die maximale Änderung der Herzfrequenz. Als Wirkdauer galt die Zeit vom Eintritt der Veränderung bis zum Erreichen des Ausgangswertes.

SMILES | WD min x̄ (Wirkungsdauer) (dose 0.01 mg/kg i.a.) [min] | HF Δ s/min x̄ (maximal change of heart rate, dose 0.1 mg/kg i.a.) [s/min] | WD min x̄ (Wirkungsdauer) (dose 0.1 mg/kg i.a.) [min]
COc1cc2nc(N3CCN(c4c([N+](=O)[O-])c(=O)n(C)c(=O)n4C)CC3)nc(N)c2cc1OC [*] | 36 |  | 
COc1cc2nc(N3CCN(C(=O)c4ccco4)CC3)nc(N)c2cc1OC [Prazosin] |  | 0 | 60
